Measurements: paper PMC12250302, “Synthesis, Antimicrobial Activities, and Model of Action of Novel Tetralone Derivatives Containing Aminoguanidinium Moiety” (International Journal of Molecular Sciences, 2025)
In brackets after ≈: the same amount, converted by molar mass. Read-outs that look alike come from different tables or passages of the source.

Legend:
Assay in all cases: MIC and MBC testing, broth microdilution
[1] = test system: A. baumannii ATCC 19606; type: cell-based, Acinetobacter baumannii
In short: (§1)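 Controls comprised levofloxacin (positive) and 0.1% DMSO (negative). Compounds, serially halved in MH broth, met log-phase cells pre-diluted to 1 × 10^6 CFU/mL; after an 18 h, 37 °C incubation, absence of visible growth defined the MIC, triplicate per concentration.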

[2] = test system: K. pneumoniae ATCC 700603; type: cell-based, Klebsiella pneumoniae
In short: as §1

[3] = test system: S. aureus ATCC 29213; type: cell-based, Staphylococcus aureus; conditions: S. aureus ATCC 29213; for MIC: 18 h
In short: as §1

[4] = test system: clinical S. aureus isolate LMY48; type: cell-based, Staphylococcus aureus; conditions: LMY48; for MIC: 18 h
In short: (§2)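 Broth microdilution in MH broth; two-fold serial dilutions of DMSO-dissolved compound; inoculum 1 × 10^6 CFU/mL from log-phase culture; 37 °C, 18 h; triplicates; MBC also read.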

[5] = test system: clinical S. aureus isolate LMY47; type: cell-based, Staphylococcus aureus; conditions: LMY47; for MIC: 18 h
In short: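 Triplicate broth microdilution: MH broth, serial 2× dilution of compounds dissolved in DMSO, 1 × 10^6 CFU/mL bacteria grown to log phase, 18 h at 37 °C, followed by MBC determination.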

[6] = test system: clinical S. aureus isolate LMY46; type: cell-based, Staphylococcus aureus; conditions: LMY46; for MIC: 18 h
In short: as §2

[7] = test system: MRSA-2; type: cell-based, Staphylococcus aureus; conditions: MRSA-2; for MIC: 18 h
In short: as §2

[8] = test system: MRSA-1; type: cell-based, Staphylococcus aureus; conditions: MRSA-1; for MIC: 18 h
In short: as §2

[9] = test system: clinical S. aureus isolate LMY45; type: cell-based, Staphylococcus aureus; conditions: LMY45; for MIC: 18 h
In short: as §2

[10] = test system: E. coli ATCC 25922; type: cell-based, Escherichia coli
In short: as §1

[11] = test system: P. aeruginosa ATCC 27853; type: cell-based, Pseudomonas aeruginosa
In short: as §1

[12] = test system: E. faecium ATCC 35667; type: cell-based, Enterococcus faecium; conditions: E. faecium ATCC 35667; for MIC: 18 h
In short: as §1

[13] = Staphylococcus aureus, read-out: MIC
[14] = Staphylococcus aureus, read-out: MBC

Compound: CC(C)=CCC/C(C)=C/COc1ccc2c(c1)CCC/C2=N\NC(=N)N [Compound 2J, 2-((E)-6-(((E)-3,7-dimethylocta-2,6-dien-1-yl)oxy)-3,4-dihydronaphthalen-1(2H)-ylidene)hydrazine-1-carboximidamide]
- MIC ([1]; Acinetobacter baumannii, ATCC19606, 18 h, read-out: MIC): 8 µg/mL (≈ 22.6 µM)
- MBC ([1]; Acinetobacter baumannii, ATCC19606, read-out: MBC): 16 µg/mL (≈ 45.1 µM)
- MIC ([2]; Klebsiella pneumoniae, ATCC700603, 18 h, read-out: MIC): > 32 µg/mL
- MIC ([3]; Staphylococcus aureus, ATCC29213, read-out: MIC): 4 µg/mL (≈ 11.3 µM)
- MBC ([3]; Staphylococcus aureus, ATCC29213, read-out: MBC): 8 µg/mL (≈ 22.6 µM)
- MIC [4, 13]: 4 µg/mL (≈ 11.3 µM)
- MBC [4, 14]: 8 µg/mL (≈ 22.6 µM)
- MIC [5, 13]: 2 µg/mL (≈ 5.64 µM)
- MBC [5, 14]: 16 µg/mL (≈ 45.1 µM)
- MIC [6, 13]: 2 µg/mL (≈ 5.64 µM)
- MBC [6, 14]: > 32 µg/mL
- MIC [7, 13]: 2 µg/mL (≈ 5.64 µM)
- MBC [7, 14]: 16 µg/mL (≈ 45.1 µM)
- MIC [8, 13]: 2 µg/mL (≈ 5.64 µM)
- MBC [8, 14]: 16 µg/mL (≈ 45.1 µM)
- MIC [9, 13]: 4 µg/mL (≈ 11.3 µM)
- MBC [9, 14]: 16 µg/mL (≈ 45.1 µM)
- MIC ([10]; Escherichia coli, ATCC25922, 18 h, read-out: MIC): 8 µg/mL (≈ 22.6 µM)
- MBC ([10]; Escherichia coli, ATCC25922, read-out: MBC): 16 µg/mL (≈ 45.1 µM)
- MIC ([11]; Pseudomonas aeruginosa, ATCC27853, 18 h, read-out: MIC): 32 µg/mL (≈ 90.3 µM)
- MBC ([11]; Pseudomonas aeruginosa, ATCC27853, read-out: MBC): 32 µg/mL (≈ 90.3 µM)
- MIC ([12]; Enterococcus faecium, ATCC35667, read-out: MIC): 2 µg/mL (≈ 5.64 µM)
- MBC ([12]; Enterococcus faecium, ATCC35667, read-out: MBC): 8 µg/mL (≈ 22.6 µM)

Compound: (E)-2-(6-((2,4-dichlorobenzyl)oxy)-3,4-dihydro-1(2H)-naphthalenylidene)hydrazine-1-carboxamide [Compound 1O]
- MBC [1]: 16 µg/mL
- MIC ([1]; 18 h): 16 µg/mL
- MIC ([2]; 18 h): >32/- µg/mL
- MBC [3]: 8 µg/mL
- MIC [3]: 4 µg/mL
- MBC [4]: 2 µg/mL
- MIC [4]: ≤ 1 µg/mL
- MBC [5]: 4 µg/mL
- MIC [5]: ≤ 1 µg/mL
- MBC [6]: 8 µg/mL
- MIC [6]: 4 µg/mL
- MBC [7]: 8 µg/mL
- MIC [7]: 2 µg/mL
- MBC [8]: 16 µg/mL
- MIC [8]: 1 µg/mL
- MBC [9]: 16 µg/mL
- MIC [9]: 2 µg/mL
- MBC [10]: 16 µg/mL
- MIC ([10]; 18 h): 8 µg/mL
- MIC ([11]; 18 h): >32/- µg/mL
- MBC [12]: 16 µg/mL
- MIC [12]: 2 µg/mL

Compound: (E)-2-(6-((3,4-dichlorobenzyl)oxy)-3,4-dihydro-1(2H)-naphthalenylidene)hydrazine-1-carboxamide [Compound 1P]
- MBC [1]: 16 µg/mL
- MIC ([1]; 18 h): 8 µg/mL
- MBC [2]: 32 µg/mL
- MIC ([2]; 18 h): 32 µg/mL
- MBC [3]: 8 µg/mL
- MIC [3]: 2 µg/mL
- MBC [4]: ≤ 1 µg/mL
- MIC [4]: ≤ 1 µg/mL
- MBC [5]: 4 µg/mL
- MIC [5]: 2 µg/mL
- MBC [6]: 8 µg/mL
- MIC [6]: 2 µg/mL
- MBC [7]: 4 µg/mL
- MIC [7]: 2 µg/mL
- MBC [8]: 16 µg/mL
- MIC [8]: 1 µg/mL
- MBC [9]: 4 µg/mL
- MIC [9]: 2 µg/mL
- MBC [10]: 16 µg/mL
- MIC ([10]; 18 h): 8 µg/mL
- MIC ([11]; 18 h): >32/- µg/mL
- MBC [12]: 8 µg/mL
- MIC [12]: 2 µg/mL

Compound: (E)-2-(6-((4-chlorobenzyl)oxy)-3,4-dihydro-1(2H)-naphthalenylidene)hydrazine-1-carboxamide [Compound 1N]
- MBC [1]: 16 µg/mL
- MIC ([1]; 18 h): 4 µg/mL
- MBC [2]: 32 µg/mL
- MIC ([2]; 18 h): 16 µg/mL
- MBC [3]: 4 µg/mL
- MIC [3]: 2 µg/mL
- MBC [4]: 16 µg/mL
- MIC [4]: 2 µg/mL
- MBC [5]: 2 µg/mL
- MIC [5]: 2 µg/mL
- MBC [6]: 8 µg/mL
- MIC [6]: 4 µg/mL
- MBC [7]: 4 µg/mL
- MIC [7]: 2 µg/mL
- MBC [8]: 4 µg/mL
- MIC [8]: 2 µg/mL
- MBC [9]: 4 µg/mL
- MIC [9]: 2 µg/mL
- MBC [10]: 8 µg/mL
- MIC ([10]; 18 h): 4 µg/mL
- MBC [11]: 32 µg/mL
- MIC ([11]; 18 h): 16 µg/mL
- MBC [12]: 8 µg/mL
- MIC [12]: 2 µg/mL
